pEC50, pIC50: −log10 of the molar value.
Legend:
[1] = test system: acetylated tubulin; assay: High-content image analysis of induction of acetylated tubulin in A549 cells
[2] = test system: acetylated histones; assay: High-content image analysis of induction of acetylated histones in A549 cells; conditions: for pEC50: Homo sapiens, A549, 8 h, read-out: EC50 for half-maximal induction of acetylated histones (AcHistone)
[3] = biological target: T1, HDAC6 (Homo sapiens, UniProt Q9UBN7); assay: In vitro HDAC enzyme inhibition assay, HDAC6; assay type: biochemical; conditions: recombinant full-length HDAC6, substrate MAZ1600 9 μM
T1 construct: Recombinant, full-length HDAC protein (BPS Biosciences) was incubated with fluorophore conjugated substrate; purchased BPS Biosciences
T1 sequence (Q9UBN7 1-1215): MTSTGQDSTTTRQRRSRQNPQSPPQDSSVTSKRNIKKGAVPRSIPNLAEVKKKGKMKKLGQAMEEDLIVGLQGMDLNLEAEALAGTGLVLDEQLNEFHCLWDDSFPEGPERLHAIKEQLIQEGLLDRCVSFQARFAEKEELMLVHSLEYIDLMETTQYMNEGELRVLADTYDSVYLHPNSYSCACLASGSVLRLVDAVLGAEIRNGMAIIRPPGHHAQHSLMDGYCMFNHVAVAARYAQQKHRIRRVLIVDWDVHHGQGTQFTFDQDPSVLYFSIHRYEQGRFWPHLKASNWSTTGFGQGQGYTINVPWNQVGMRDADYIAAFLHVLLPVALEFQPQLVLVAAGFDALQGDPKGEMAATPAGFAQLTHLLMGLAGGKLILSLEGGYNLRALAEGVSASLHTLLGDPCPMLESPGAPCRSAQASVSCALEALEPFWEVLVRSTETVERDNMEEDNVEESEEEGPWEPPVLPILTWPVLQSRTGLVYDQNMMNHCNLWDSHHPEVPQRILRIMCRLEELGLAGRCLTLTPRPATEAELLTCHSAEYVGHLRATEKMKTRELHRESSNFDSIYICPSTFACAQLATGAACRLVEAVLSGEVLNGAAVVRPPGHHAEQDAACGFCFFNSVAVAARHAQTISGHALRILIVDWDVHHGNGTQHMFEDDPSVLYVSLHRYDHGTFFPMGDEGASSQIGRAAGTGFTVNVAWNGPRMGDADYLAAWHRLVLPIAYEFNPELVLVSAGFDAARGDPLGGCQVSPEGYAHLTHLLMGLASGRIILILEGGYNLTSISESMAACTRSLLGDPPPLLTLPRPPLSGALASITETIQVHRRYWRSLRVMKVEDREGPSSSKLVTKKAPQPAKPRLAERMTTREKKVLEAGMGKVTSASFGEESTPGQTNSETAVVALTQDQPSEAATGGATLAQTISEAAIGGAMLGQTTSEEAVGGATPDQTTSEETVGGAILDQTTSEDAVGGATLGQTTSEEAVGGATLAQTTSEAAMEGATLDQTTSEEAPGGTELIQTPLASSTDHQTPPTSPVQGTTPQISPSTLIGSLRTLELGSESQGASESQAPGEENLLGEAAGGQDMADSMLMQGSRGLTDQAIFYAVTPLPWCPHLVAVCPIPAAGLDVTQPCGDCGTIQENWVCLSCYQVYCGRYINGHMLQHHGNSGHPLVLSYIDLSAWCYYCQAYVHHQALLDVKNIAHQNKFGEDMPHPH
Protocol: In vitro Histone Deacetylase enzyme assays were performed using Class I (isoforms: HDAC1, HDAC2, HDAC3 and HDAC8), class IIa (isoforms: HDAC4, HDAC5, HDAC7 and HDAC9) and class IIb (isoform HDAC6).
HDAC activities were determined in vitro with an optimized homogenous assay performed in a 384-well plate. Recombinant, full-length HDAC protein (BPS Biosciences) was incubated with fluorophore conjugated substrate, MAZ1600 and MAZ1675, at Km=[S]. […] Reactions were performed in assay buffer (50 mM HEPES, 100 mM KCl, 0.001% Tween-20, 0.05% BSA, 200 μM tris(2-carboxyethyl)phosphine (TCEP), pH 7.4) and followed for fluorogenic release of 7-amino-4-methylcoumarin from substrate upon deacetylase and trypsin enzymatic activity. Fluorescence measurements were obtained every five minutes using a multilabel plate reader and plate-stacker (Envision; Perkin-Elmer). Each plate was analyzed by plate repeat, and the first derivative within the linear range was imported into analytical software (Spotfire DecisionSite and GraphPad Prism). Replicate experimental data from incubations with inhibitor were normalized to controls.

Row | pEC50 [2] | pIC50 [3] | pEC50 ([1]; Homo sapiens, A549, 8 h, read-out: EC50 for half-maximal induction of acetylated tubulin (AcTubulin)) | Compound | levels of acetylated tubulin, dose response (in words) ([1]; A549 cells, FIG. 11) | levels of acetylated histone, dose response (in words) ([2]; A549 cells, FIG. 11) | AcHistone/AcTubulin in cell selectivity toward HDAC6 ([1]; ratio of EC50 acetylated histone to EC50 acetylated tubulin, A549 cells)
1 | 6.84 | – | – | O=C(CCCCCCC(=O)Nc1ccccc1)NO [SAHA, suberoylanilide hydroxamic acid, reference compound] | dose-dependent increase | dose-dependent increase | –
2 | 5.60 | 5.83 | 6.91 | Cc1ccc2c(c1)nnn2Cc1ccc(C(=O)NO)cc1 [C2, N-hydroxy-4-((5-methyl-1H-benzo[d][1,2,3]triazol-1-yl)methyl)benzamide] | – | – | 20.3

— patent US20150197497A1, “SELECTIVE INHIBITORS OF HISTONE DEACETYLASE ISOFORM 6 AND METHODS THEREOF” (DANA-FARBER CANCER INSTITUTE, INC., priority 2011, published 2015)
